Test results: PubChem BioAssay (NCI)
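GI50 is the concentration that inhibits growth by half. The concentration for full growth arrest is given as TGI.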

Columns and labels:
Assay in all cases: growth of human tumour cells (NCI), 384-well format
[1] = tested on: OVCAR-5 ovarian
[2] = tested on: MOLT-4 leukemia
[3] = tested on: SW-620 colon
[4] = tested on: OVCAR-3 ovarian
[5] = tested on: A549 NSCLC
[6] = tested on: SNB-75 CNS
[7] = tested on: NCI-H23 lung
[8] = tested on: MDA-MB-435 melanoma
[9] = tested on: SF-268 CNS
[10] = tested on: OVCAR-8 ovarian
[11] = tested on: HT29 colon
[12] = tested on: U251 glioblastoma
[13] = tested on: EKVX NSCLC

SMILES	GI50 [1]	TGI [1]	GI50 [2]	TGI [2]	GI50 [3]	TGI [3]	GI50 [4]	TGI [4]	GI50 [5]	TGI [5]	GI50 [6]	TGI [6]	GI50 [7]	TGI [7]	GI50 [8]	TGI [8]	GI50 [9]	TGI [9]	GI50 [10]	TGI [10]	other results
C[C@@H](Oc1cc(NS(=O)(=O)N2CCC2)nc(SCc2cccc(F)c2F)n1)[C@@H](O)CO	> 100 µM	> 100 µM	> 61.8 µM	> 100 µM	> 100 µM	> 100 µM	> 73.9 µM	> 100 µM	> 100 µM	> 100 µM	> 100 µM	> 100 µM	99.2 µM	> 100 µM	> 100 µM	> 100 µM	> 100 µM	> 100 µM	> 100 µM	> 100 µM	GI50 [11]: > 100 µM; TGI [11]: > 100 µM; GI50 [12]: > 100 µM; TGI [12]: > 100 µM; GI50 [13]: > 100 µM; TGI [13]: > 100 µM
COc1cc(C)[nH]c(=O)c1CN1CCc2c(Cl)cc([C@H](OC)C3COC3)c(Cl)c2C1=O	> 100 µM	> 100 µM	> 100 µM	> 100 µM	> 100 µM	> 100 µM	> 100 µM	> 100 µM	> 100 µM	> 100 µM	> 100 µM	> 100 µM	> 100 µM	> 100 µM	> 100 µM	> 100 µM	> 100 µM	> 100 µM	> 100 µM	> 100 µM	GI50 [11]: > 100 µM; TGI [11]: > 100 µM; GI50 [12]: > 100 µM; TGI [12]: > 100 µM; GI50 [13]: > 100 µM; TGI [13]: > 100 µM
